Measured values as given in patent US8168651B2, “Protein kinase modulators” (Cylene Pharmaceuticals, Inc., priority 2008, dated 2012).
Read-outs that look alike come from different tables or passages of the source.

Columns and labels:
recombinant human PIM1 = recombinant human PIM1 (Homo sapiens (Human), UniProt P11309); experiment: PIM-1 kinase activity in cell-free in vitro assay; type: biochemical; conditions: for inhibition at 0.5 µM: 500 nM compound, read-out: PIM-1: % inh 500 nM
[1] = test system: HCT-116 human colorectal carcinoma cells; experiment: Cell-proliferation assay using Alamar Blue dye; type: cell-based; conditions: Homo sapiens, HCT-116, HCT-116, second HCT-116 column (c8); read-out: HCT-116 (uM), cell proliferation modulatory activity;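 further: cells exposed to compound for about 4 days, then Alamar Blue added and dye fluorescence read after about 4 h, compared with medium-only control wells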

Chain of recombinant human PIM1 (P11309 whole entry): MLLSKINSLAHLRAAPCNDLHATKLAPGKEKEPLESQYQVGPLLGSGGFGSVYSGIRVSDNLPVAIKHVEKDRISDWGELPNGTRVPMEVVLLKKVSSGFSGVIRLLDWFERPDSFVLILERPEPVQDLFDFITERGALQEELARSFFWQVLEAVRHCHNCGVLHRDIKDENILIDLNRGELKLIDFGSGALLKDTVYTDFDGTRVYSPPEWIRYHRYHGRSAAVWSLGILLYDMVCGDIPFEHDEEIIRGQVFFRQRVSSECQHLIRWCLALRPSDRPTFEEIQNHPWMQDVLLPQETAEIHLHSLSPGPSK

`CN1CCCN(c2nc3cc(C#N)ccc3c3sccc23)CC1` was tested, and the inhibition at 0.5 µM (recombinant human PIM1; cell-free assay) was -10% and the IC50 [1] was 2.63 µM.
Work on `N#Cc1ccc2c(c1)nc(NCCN1CCOCC1)c1ccsc12` yielded an inhibition at 0.5 µM (recombinant human PIM1; cell-free assay) of -23.8% and an IC50 [1] greater than 10 µM.
In the case of `N#Cc1ccc2c(c1)nc(N1CCN(CCO)CC1)c1ccsc12`, the inhibition at 0.5 µM (recombinant human PIM1; cell-free assay) is reported as -17.6% and the IC50 [1] is reported as 9.38 µM.
`N#Cc1ccc2c(c1)nc(NCCO)c1ccsc12` was tested, and the inhibition at 0.5 µM (recombinant human PIM1; cell-free assay) was -2.91% and the IC50 [1] was greater than 10 µM.
For `CN(C)C1CCN(c2nc3cc(C#N)ccc3c3sccc23)C1` (stereo not drawn), the inhibition at 0.5 µM (recombinant human PIM1; cell-free assay) was -16.5% and the IC50 [1] was 3.86 µM.
Work on `N#Cc1ccc2c(c1)nc(NCCN1CCCC1)c1ccsc12` yielded an inhibition at 0.5 µM (recombinant human PIM1; cell-free assay) of -22.4% and an IC50 [1] of 2.2 µM.
`CN1CCN(c2nc3cc(C(=O)O)ccc3c3cnccc23)CC1` showed an inhibition at 0.5 µM (recombinant human PIM1; cell-free assay) of 40.1% and an IC50 [1] greater than 10 µM.
`Cc1cnc(CNC(=O)c2ccc3c(c2)nc(N2CCN(C)CC2)c2ccncc23)cn1` gave an inhibition at 0.5 µM (recombinant human PIM1; cell-free assay) of -23.1% and an IC50 [1] greater than 10 µM.
With `CN1CCN(c2nc3cc(C(=O)NNc4ccccn4)ccc3c3sccc23)CC1` the inhibition at 0.5 µM (recombinant human PIM1; cell-free assay) was -10.9% and the IC50 [1] was greater than 10 µM.
`CN1CCN(c2nc3cc(C(=O)NCc4ccncc4)ccc3c3sccc23)CC1` gave an inhibition at 0.5 µM (recombinant human PIM1; cell-free assay) of -14.1% and an IC50 [1] greater than 10 µM.
`CN1CCN(c2nc3cc(C(=O)NCc4cccnc4)ccc3c3sccc23)CC1` showed an inhibition at 0.5 µM (recombinant human PIM1; cell-free assay) of -16% and an IC50 [1] greater than 10 µM.
`CC(C)OCCNC(=O)c1ccc2c(c1)nc(N1CCN(C)CC1)c1ccsc12` gave an inhibition at 0.5 µM (recombinant human PIM1; cell-free assay) of -3.62% and an IC50 [1] greater than 10 µM.
`CN1CCN(c2nc3cc(C(=O)NCC4CCCO4)ccc3c3sccc23)CC1` (stereo not drawn) showed an inhibition at 0.5 µM (recombinant human PIM1; cell-free assay) of 11% and an IC50 [1] greater than 10 µM.
Compound `CN1CCN(c2nc3cc(C(=O)NC4CC4)ccc3c3sccc23)CC1` has an inhibition at 0.5 µM (recombinant human PIM1; cell-free assay) of -12.7% and an IC50 [1] greater than 10 µM.
Compound `CONC(=O)c1ccc2c(c1)nc(N1CCN(C)CC1)c1ccsc12` has an inhibition at 0.5 µM (recombinant human PIM1; cell-free assay) of -0.965% and an IC50 [1] greater than 10 µM.
For `CN1CCN(c2nc3cc(C(=O)NCc4nccn4C)ccc3c3sccc23)CC1`, the inhibition at 0.5 µM (recombinant human PIM1; cell-free assay) was -14.5% and the IC50 [1] was greater than 10 µM.
`CN1CCN(c2nc3cc(C(=O)NCc4cncn4C)ccc3c3sccc23)CC1` showed an inhibition at 0.5 µM (recombinant human PIM1; cell-free assay) of -22.5% and an IC50 [1] greater than 10 µM.
With `Cn1nc(-c2ccccc2)cc1Nc1nc2cc(C(=O)O)ccc2c2cnccc12` the inhibition at 0.5 µM (recombinant human PIM1; cell-free assay) was 58.3%, the IC50 (recombinant human PIM1; cell-free assay) was 0.914 µM and the IC50 [1] was greater than 10 µM.
With `COC(=O)c1ccc2c(c1)nc(Nc1ccccc1C)c1nc(SC)ncc12` the inhibition at 0.5 µM (recombinant human PIM1; cell-free assay) was 12.5% and the IC50 [1] was greater than 10 µM.
Work on `O=C(O)c1ccc2c(c1)nc(N1CCN(c3cnccn3)CC1)c1ccncc12` yielded an inhibition at 0.5 µM (recombinant human PIM1; cell-free assay) of -2.36%.
For `CC(=O)Nc1cccc(Nc2nc3cc(C(=O)O)ccc3c3cnccc23)c1`, the inhibition at 0.5 µM (recombinant human PIM1; cell-free assay) was 73.6%, the IC50 (recombinant human PIM1; cell-free assay) was 0.369 µM and the IC50 [1] was greater than 10 µM.
Compound `NS(=O)(=O)c1cccc(Nc2nc3cc(C(=O)O)ccc3c3cnccc23)c1` has an inhibition at 0.5 µM (recombinant human PIM1; cell-free assay) of 83.4%, an IC50 (recombinant human PIM1; cell-free assay) of 0.397 µM and an IC50 [1] greater than 10 µM.
`COCCOc1cccc(Nc2nc3c(C(N)=O)cccc3c3cnccc23)c1` showed an IC50 (recombinant human PIM1; Table 45) of less than 0.5 µM.
`OCc1cccc2c1nc(Nc1cccc(Cl)c1)c1ccncc12` showed an IC50 (recombinant human PIM1; Table 45) of less than 1 µM.
For `O=C(O)c1cccc2c1nc(Nc1cccc(Cl)c1)c1cnccc12`, the IC50 (recombinant human PIM1; Table 45) was greater than 1.1 µM.
With `CN(C)CCNC(=O)c1cccc2c1nc(Nc1cccc(Cl)c1)c1ccncc12` the IC50 (recombinant human PIM1; Table 45) was greater than 1.1 µM.
With `COCCNC(=O)c1cccc2c1nc(Nc1cccc(Cl)c1)c1ccncc12` the IC50 (recombinant human PIM1; Table 45) was greater than 1.1 µM.
`COC(=O)c1cccc2c1nc(Nc1cccc(Cl)c1)c1ccncc12` gave an IC50 (recombinant human PIM1; Table 45) greater than 1.1 µM.
`CN(C)C(=O)c1cccc2c1nc(Nc1cccc(Cl)c1)c1ccncc12` gave an IC50 (recombinant human PIM1; Table 45) greater than 1.1 µM.
With `O=C(NCc1ccccc1)c1cccc2c1nc(Nc1cccc(Cl)c1)c1ccncc12` the IC50 (recombinant human PIM1; Table 45) was greater than 1.1 µM.
`O=C(c1cccc2c1nc(Nc1cccc(Cl)c1)c1ccncc12)N1CCOCC1` showed an IC50 (recombinant human PIM1; Table 45) greater than 1.1 µM.
Compound `O=C(NC1CC1)c1cccc2c1nc(Nc1cccc(Cl)c1)c1ccncc12` has an IC50 (recombinant human PIM1; Table 45) greater than 1.1 µM.
For `O=C(Nc1ccccc1)c1cccc2c1nc(Nc1cccc(Cl)c1)c1ccncc12`, the IC50 (recombinant human PIM1; Table 45) was greater than 1.1 µM.
Work on `CONC(=O)c1cccc2c1nc(Nc1cccc(Cl)c1)c1ccncc12` yielded an IC50 (recombinant human PIM1; Table 45) greater than 1.1 µM.
In the case of `NNC(=O)c1cccc2c1nc(Nc1cccc(Cl)c1)c1ccncc12`, the IC50 (recombinant human PIM1; Table 45) is reported as less than 5 µM.
`Clc1cccc(Nc2nc3c(-c4nnco4)cccc3c3cnccc23)c1` gave an IC50 (recombinant human PIM1; Table 45) greater than 1.1 µM.
Compound `N#Cc1cccc2c1nc(Nc1cccc(Cl)c1)c1ccncc12` has an IC50 (recombinant human PIM1; Table 45) greater than 1.1 µM.
For `NCc1ccc(Nc2nc3c(-c4nnc[nH]4)cccc3c3cnccc23)c(Cl)c1`, the IC50 (recombinant human PIM1) was less than 0.1 µM.
`CN1CCN(c2ccc(Nc3nc4c(-c5nnc[nH]5)cccc4c4cnccc34)cc2)CC1` was tested, and the IC50 (recombinant human PIM1) was less than 0.5 µM.
In the case of `c1cc(-c2nnc[nH]2)c2nc(N3CCOCC3)c3ccncc3c2c1`, the IC50 (recombinant human PIM1) is reported as 3.97 µM.
Work on `COC(=O)c1cccc2c1nc(Cl)c1ccncc12` [drawing 2270] yielded an IC50 (recombinant human PIM1; Table 45) greater than 1.1 µM.
`O=C(O)c1cccc2c1nc(Nc1cccc(Cl)c1)c1ccncc12` [drawing 2271] was tested, and the IC50 (recombinant human PIM1; Table 45) was greater than 1.1 µM.
Work on `COC(=O)c1cccc2c1nc(Nc1ccccc1)c1ccncc12` [drawing 2272] yielded an IC50 (recombinant human PIM1; Table 45) greater than 1.1 µM.
Compound `O=C(O)c1cccc2c1nc(Nc1ccccc1)c1ccncc12` [drawing 2273] has an IC50 (recombinant human PIM1; Table 45) greater than 1.1 µM.
Work on `CNC(=O)c1cccc2c1nc(Nc1cccc(Cl)c1)c1ccncc12` [drawing 2277] yielded an IC50 (recombinant human PIM1; Table 45) greater than 1.1 µM.
